{
  "source": "patent US6525001B1",
  "about": "“Substituted pyrimidine and pyridine herbicides” (Mid-American Commercialization Corporation, priority 1997, dated 2003)",
  "assay_type_in_all_cases": "in vivo",
  "key": {"[1]": {"test_system": "blackgrass (Alopecurus myosuroides)", "experiment": "Test B pre-/postemergence", "set-up": "key: 0 is no effect; 10 is complete control", "outline": "(§1)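 Seeds were planted and sprayed preemergence, while plants at 2 to 18 cm (1- to 4-leaf stage) were sprayed postemergence at the same time, with test chemical in a non-phytotoxic solvent mixture containing surfactant. After twelve to sixteen days in a greenhouse, injury was rated visually against untreated controls on a 0–10 scale.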"}, "[2]": {"test_system": "wild oat (Avena fatua)", "experiment": "Test B pre-/postemergence", "set-up": "key: 0 is no effect; 10 is complete control", "outline": "as §1"}, "[3]": {"test_system": "bamyardgrass (Echinochloa crus-galli)", "experiment": "Test B flood test", "outline": "(§2)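 Plants were grown to the 2-leaf stage before treatment with test chemical, then held in a greenhouse for twelve to sixteen days. Injury was visually rated against untreated controls on a 0–10 scale, where 0 is no effect and 10 is complete control.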"}, "[4]": {"test_system": "duck salad (Heteranthera limosa)", "experiment": "Test B flood test", "outline": "as §2"}, "[5]": {"test_system": "rice (Oryza sativa)", "experiment": "Test B flood test", "outline": "as §2"}, "[6]": {"test_system": "smallflower flatsedge (Cyperus difformis)", "experiment": "Test B flood test", "outline": "as §2"}, "[7]": {"test_system": "common ragweed (Ambrosia elatior)", "experiment": "Test C", "conditions": "PREEMERGENCE"}, "[8]": {"test_system": "fall panicum (Panicum dichotomiflorum)", "experiment": "Test C", "set-up": "key: 0 was no effect; 100 was complete control", "conditions": "PREEMERGENCE"}, "[9]": {"test_system": "johnsongrass (Sorghum halepense)", "experiment": "Test C", "set-up": "key: 0 was no effect; 100 was complete control", "conditions": "PREEMERGENCE"}, "[10]": {"test_system": "purple nutsedge (Cyperus rotundus)", "experiment": "Test C", "set-up": "key: 0 was no effect; 100 was complete control", "conditions": "PREEMERGENCE"}, "[11]": {"test_system": "surinam grass (Brachiaria decumbens)", "experiment": "Test C", "conditions": "PREEMERGENCE"}, "[12]": {"test_system": "purple nutsedge (Cyperus rotundus)", "experiment": "Test E pre-/postemergence/post directed", "set-up": "key: 0 is no injury; 100 is complete control", "excerpt": "(§3) Seeds, tubers, or plant parts of alexandergrass (Brachiaria plantaginea), annual bluegrass (Poa annua), arrowleaf sida (Sida rhombifolia), barnyardgrass (Echinochloa crus-galli), bermudagrass (Cynodon dactylon), citrus (Citrus sinensis), common chickweed (Stellaria media), common purslane (Portulaca oleracea), common ragweed (Ambrosia elatior), common groundsel (Senecio vulgaris), dallisgrass (Paspalum dilatatum), goosegrass (Eleusine indica), green foxtail (Setaria viridis), guineagrass (Panicum maximum), itchgrass (Rottboellia exaltata), johnson grass (Sorghum halepense), kochia (Kochia scoparia), large crabgrass (Digitaria sanguinalis), leafy spurge (Euphorbia esula), pitted morningglory (Ipomoea lacunosa), purple nutsedge (Cyperus rotundus), quackgrass (Agropyron repens), Russian thistle (Salsola kali), sandbur (Cenchrus echinatus), sourgrass (Trichachne insularis), Spanishneedles (Bidens bipinnata), sugarcane (Saccharum officinarum), surinam grass (Brachiaria decumbens) and tall mallow (Malva sylvestris) were planted into greenhouse pots of flats containing greenhouse planting medium. Plant species were grown grown in separate pots or individual compartments. Preemergence applications were made within one day of planting the seed or plant part. Postemergence applications were applied when the plants were in the two to four leaf stage (three to twenty cm).\n(§4) Test chemicals were formulated in a non-phytotoxic solvent mixture which included a surfactant and applied preemergence to the soil surface, postemergence to the plants or as a post directed spray to plants and soil at the base of the target species. Untreated control plants and treated plants were placed in the greenhouse and visually evaluated for injury 13 to 21 days after herbicide application. Plant response ratings, summarized in Table E, are based on a 0 to 100 scale where 0 is no injury and 100 is complete control. A dash (−) response means no test result."}, "[13]": {"test_system": "sandbur (Cenchrus echinatus)", "experiment": "Test E pre-/postemergence/post directed", "set-up": "key: 0 is no injury; 100 is complete control", "conditions": "POSTEMERGENCE", "excerpt": "as §3, §4"}, "[14]": {"test_system": "common groundsel (Senecio vulgaris)", "experiment": "Test E pre-/postemergence/post directed", "excerpt": "as §3, §4"}, "[15]": {"test_system": "pitted morningglory (Ipomoea lacunosa)", "experiment": "Test E pre-/postemergence/post directed", "excerpt": "as §3, §4"}, "[16]": {"conditions": "Rate 62 g/ha, Postemergence (flood test)"}, "[17]": {"conditions": "Rate 125 g/ha, Postemergence, flood test"}, "[18]": {"conditions": "Rate 250 g/ha, Postemergence (flood test species)"}},
  "data": [
    {"compound": "Cc1cnc(-c2ccc(C(F)(F)F)cc2)nc1Cc1cccc(OC(F)(F)F)c1", "note": "[Compound 15]", "values": [
      {"measurement": "Plant response rating, Blackgrass", "setting": "[1]; Rate 62 g/ha, Postemergence", "value": 6},
      {"measurement": "Blackgrass plant response rating", "setting": "[1]; Rate 62 g/ha, Preemergence", "value": 9},
      {"measurement": "Plant response rating, Blackgrass", "setting": "[1]; Rate 125 g/ha, Postemergence", "value": 9},
      {"measurement": "Blackgrass plant response rating", "setting": "[1]; Rate 125 g/ha, Preemergence", "value": 10},
      {"measurement": "Plant response rating, Blackgrass", "setting": "[1]; Rate 250 g/ha, Postemergence", "value": 9},
      {"measurement": "Plant response rating, Blackgrass", "setting": "[1]; Rate 250 g/ha, Preemergence", "value": 10},
      {"measurement": "Plant response rating, Wild oats", "setting": "[2]; Rate 62 g/ha, Postemergence", "value": 6},
      {"measurement": "Wild oats plant response rating", "setting": "[2]; Rate 62 g/ha, Preemergence", "value": 8},
      {"measurement": "Plant response rating, Wild oats", "setting": "[2]; Rate 125 g/ha, Postemergence", "value": 7},
      {"measurement": "Wild oats plant response rating", "setting": "[2]; Rate 125 g/ha, Preemergence", "value": 9},
      {"measurement": "Plant response rating, Wild oats", "setting": "[2]; Rate 250 g/ha, Postemergence", "value": 9},
      {"measurement": "Plant response rating, Wild oats", "setting": "[2]; Rate 250 g/ha, Preemergence", "value": 9},
      {"measurement": "Plant response rating, Barnyardgrass", "setting": "[3]; [16]", "value": 6},
      {"measurement": "Plant response rating, Barnyardgrass", "setting": "[3]; [17]", "value": 8},
      {"measurement": "Plant response rating, Barnyardgrass", "setting": "[3]; [18]", "value": 9},
      {"measurement": "Plant response rating, Ducksalad", "setting": "[4]; [16]", "value": 6},
      {"measurement": "Plant response rating, Ducksalad", "setting": "[4]; [17]", "value": 6},
      {"measurement": "Plant response rating, Ducksalad", "setting": "[4]; [18]", "value": 7},
      {"measurement": "Plant response rating, Rice", "setting": "[5]; [16]", "value": 6},
      {"measurement": "Plant response rating, Rice", "setting": "[5]; [17]", "value": 7},
      {"measurement": "Plant response rating, Rice", "setting": "[5]; [18]", "value": 7},
      {"measurement": "Plant response rating, S. Flatsedge", "setting": "[6]; [16]", "value": 7},
      {"measurement": "Plant response rating, S. Flatsedge", "setting": "[6]; [17]", "value": 8},
      {"measurement": "Plant response rating, S. Flatsedge", "setting": "[6]; [18]", "value": 9},
      {"measurement": "Plant response rating, Common ragweed", "setting": "[7]; Rate 35 g/ha", "value": 10},
      {"measurement": "Plant response rating, Common ragweed", "setting": "[7]; Rate 70 g/ha", "value": 20},
      {"measurement": "Plant response rating, Common ragweed", "setting": "[7]; Rate 140 g/ha", "value": 75},
      {"measurement": "Plant response rating, Fall panicum", "setting": "[8]; Rate 35 g/ha", "value": 40},
      {"measurement": "Plant response rating, Fall panicum", "setting": "[8]; Rate 70 g/ha", "value": 80},
      {"measurement": "Plant response rating, Fall panicum", "setting": "[8]; Rate 140 g/ha", "value": 100},
      {"measurement": "Plant response rating, Johnsongrass", "setting": "[9]; Rate 35 g/ha", "value": 35},
      {"measurement": "Plant response rating, Johnsongrass", "setting": "[9]; Rate 70 g/ha", "value": 85},
      {"measurement": "Plant response rating, Johnsongrass", "setting": "[9]; Rate 140 g/ha", "value": 100},
      {"measurement": "Plant response rating, Purple nutsedge", "setting": "[10]; Rate 35 g/ha", "value": 0},
      {"measurement": "Plant response rating, Purple nutsedge", "setting": "[10]; Rate 70 g/ha", "value": 0},
      {"measurement": "Plant response rating, Purple nutsedge", "setting": "[10]; Rate 140 g/ha", "value": 0},
      {"measurement": "Plant response rating, Surinam grass", "setting": "[11]; Rate 35 g/ha", "value": 20},
      {"measurement": "Plant response rating, Surinam grass", "setting": "[11]; Rate 70 g/ha", "value": 50},
      {"measurement": "Plant response rating, Surinam grass", "setting": "[11]; Rate 140 g/ha", "value": 80},
      {"measurement": "Plant response rating, Purple nutsedge", "setting": "[12]; POSTEMERGENCE, Rate 125 g/ha", "value": 0},
      {"measurement": "Plant response rating, Purple nutsedge", "setting": "[12]; POSTEMERGENCE, Rate 250 g/ha", "value": 0},
      {"measurement": "Plant response rating, Purple nutsedge", "setting": "[12]; PREEMERGENCE, Rate 32 g/ha", "value": 0},
      {"measurement": "Plant response rating, Purple nutsedge", "setting": "[12]; PREEMERGENCE, Rate 64 g/ha", "value": 0},
      {"measurement": "Plant response rating, Purple nutsedge", "setting": "[12]; PREEMERGENCE, Rate 125 g/ha", "value": 0},
      {"measurement": "Plant response rating, Purple nutsedge", "setting": "[12]; PREEMERGENCE, Rate 250 g/ha", "value": 0},
      {"measurement": "Plant response rating, Sandbur", "setting": "[13]; Rate 125 g/ha", "value": 0},
      {"measurement": "Plant response rating, Sandbur", "setting": "[13]; Rate 250 g/ha", "value": 0},
      {"measurement": "Plant response rating, Com. groundsel", "setting": "[14]; POSTEMERGENCE, Rate 250 g/ha", "value": 20},
      {"measurement": "Plant response rating, Com. groundsel", "setting": "[14]; PREEMERGENCE, Rate 64 g/ha", "value": 98},
      {"measurement": "Plant response rating, P. morninglory", "setting": "[15]; POSTEMERGENCE, Rate 125 g/ha", "value": 5},
      {"measurement": "Plant response rating, P. morninglory", "setting": "[15]; POSTEMERGENCE, Rate 250 g/ha", "value": 5},
      {"measurement": "Plant response rating, P. morninglory", "setting": "[15]; PREEMERGENCE, Rate 32 g/ha", "value": 5},
      {"measurement": "Plant response rating, P. morninglory", "setting": "[15]; PREEMERGENCE, Rate 64 g/ha", "value": 40},
      {"measurement": "Plant response rating, P. morninglory", "setting": "[15]; PREEMERGENCE, Rate 125 g/ha", "value": 75},
      {"measurement": "Plant response rating, P. morninglory", "setting": "[15]; PREEMERGENCE, Rate 250 g/ha", "value": 90}
    ]}
  ]
}
